# According to US8951527B2, “Radioprotectants targeting thrombospondin-1 and CD47” (The United States of America, as represented by the …, priority 2008, dated 2015):
# Tests used:
# B16F10 melanoma cells = test: B16F10 melanoma cell viability after irradiation in vitro; type: cell-based, mouse; settings: 7N3 1 hour or morpholino 48 hours before 10 Gy, versus untreated cells
# Procedure: FIG. 19. CD47 suppression enhances re-growth delay in irradiated syngeneic B16 melanoma and squamous cell carcinoma tumors but increases radioresistance of B16 cells in vitro. C57BL/6 mice were injected with 1×10^6 B16 mouse melanoma cells into their right hindlimbs. Five days later, the mice were randomized into 4 groups (12 mice in each group) where they either received injections of CD47 morpholino (10 μM) in sterile PBS, PBS, or no injection. The two groups receiving injections were then subjected to radiation (10 Gy) to the effected hindlimb 48 hours later. The other two groups served as controls and consisted of tumor alone or tumor subjected to only the morpholino. Tumors were followed post-radiation for 30 days, measuring their volume every 6 days (FIG. 19A). […] Cell (mitochondrial) viability was measured 48 hours post radiation using the MTT assay.
# Cell Viability Assay. […] Cell viability was determined using the CellTiter 96 Aqueous One Solution cell proliferation assay (Promega, Madison, Wis.) as per the manufacturer's instructions and absorbance at 490 nm was determined using an MR580 Microelisa AutoReader (Dynatech, Alexandria, Va.). […]
# Irradiation of cells. […] The dose rate at 50 cm from the x-ray source was 242 cGy/minute, as determined by multiple thermo luminescent dosimeter readings.
# C57BL/6 wild type mice = test: Hindlimb irradiation (25 Gy), skin reaction / tissue necrosis grading and histology; type: in vivo, mouse; settings: for skin reaction / tissue damage of irradiated hindlimb: 10 μM in 750 μl PBS local-regional
# Procedure: FIG. 16. CD47 suppression using an antisense morpholino minimizes tissue damage from radiation injury. Age and sex matched C57BL16 wild type mice underwent a one-time treatment of the right hindlimb with either a murine specific CD47 morpholino oligonucleotide (10 μM in 750 μl PBS) or 750 μl of PBS injected local-regionally to the muscle and soft tissues. […] At the end of 8 weeks, there was a considerable amount of alopecia, dry desquamation and early signs of fibrotic contractures within the irradiated hind limbs of mice receiving only PBS. […] The tissue necrosis grading scores for 8 animals are presented as mean±SD (FIG. 16B) and show a similar trend throughout the 8-week observation period.
# Skin reaction: Skin reaction following hind limb irradiation was quantified every week following treatment for 8 weeks using a previously described grading system (Flanders et al., Am J Pathol 163:2247-2257, 2003). The grading system consisted of 5 categories: normal, hair loss, erythema, dry desquamation and moist desquamation/ulceration.
# Irradiation of mice: Age and sex matched wild type mice underwent local irradiation to the right hindlimb as described in Example 1. Forty-eight hours prior to irradiation, animals received the CD47 morpholino (SEQ ID NO: 4), a control morpholino (SEQ ID NO: 5) (both at 10 μM in […] PBS via intramuscular injection), vehicle, or no treatment to the hind limb. Under 1% isoflurane inhalation anesthesia, the animals were placed in customized Lucite jigs that allow for immobilization and selective irradiation of the right hindlimb. A single radiation dose of 25 Gy was delivered by a Therapax® DXT300 X-ray irradiator (Pantak, Inc., East Haven, Conn.) using 2.0-mm A1 filtration (300 kVp) at a dose rate of 2.53 Gy/min. Care was taken to avoid irradiation of other body parts by using lead shields specifically designed as a part of the jigs. After irradiation, the animals were placed in cages as indicated above and observed weekly. Skin reaction after hind limb irradiation was quantified every week after treatment for 8 weeks using a previously described grading system (Flanders et al., Am J. Pathol 163:2247-2257, 2003). Briefly, tissue necrosis grading system consists of 5 categories: normal, hair loss, erythema, dry desquamation, and moist desquamation/ulceration.
# Age and sex matched C57BL16 wild type mice underwent a one-time treatment of the right hindlimb with the CD47 antisense morpholino oligonucleotide (10 μM in 750 μl PBS), a mismatched control morpholino, or vehicle (PBS) injected local-regionally to the muscle and soft tissues.
# B16F10 melanoma tumors = test: Syngeneic B16F10 melanoma tumor growth after irradiation; type: in vivo, mouse; settings: B16F10 in C57BL/6 mice
# Procedure: FIG. 19. CD47 suppression enhances re-growth delay in irradiated syngeneic B16 melanoma and squamous cell carcinoma tumors but increases radioresistance of B16 cells in vitro. C57BL/6 mice were injected with 1×10^6 B16 mouse melanoma cells into their right hindlimbs. Five days later, the mice were randomized into 4 groups (12 mice in each group) where they either received injections of CD47 morpholino (10 μM) in sterile PBS, PBS, or no injection. The two groups receiving injections were then subjected to radiation (10 Gy) to the effected hindlimb 48 hours later. The other two groups served as controls and consisted of tumor alone or tumor subjected to only the morpholino. Tumors were followed post-radiation for 30 days, measuring their volume every 6 days (FIG. 19A). Results are presented as the mean±SD of 12 mice in each treatment group and are representative of 3 independent studies. These same experimental treatment conditions were tested using another syngeneic tumor cell line (SCC VII) in C3H mice and followed for 15 days where similar results were found after injecting 1.5×10^5 cells (FIG. 19B). Results are presented as the mean±SD of 10 mice (C3II) in each treatment group and are representative of 3 independent studies. B16 mouse melanoma cells were plated on 96-well plates in standard growth medium. Cells were treated with peptide 7N3 or CD47 morpholino and received a radiation dose of 10 Gy (FIG. 19C; *p<0.05, #p<0.01). Cell (mitochondrial) viability was measured 48 hours post radiation using the MTT assay.
# Tumor Establishment and Irradiation. C57 B16 mice were injected in the right hindlimb with 1×10^6 B16F10 melanoma cells, and tumors were allowed to establish for 1 week. After tumor incorporation, the hind limbs were treated with either the CD47 morpholino or sterile phosphate buffered saline (PBS). Forty-eight hours later, all mice were subjected to right hind limb irradiation (10 Gy). The mice were observed and tumor size determined twice a week by the same individual until lesion size necessitated animal euthanasia. […]
sequence,measurement,setting,value
"CGTCACAGGCAGGACCCACTGCCCA (all phosphorodiamidate morpholino (PMO)) [CD47 morpholino, CD47 targeting morpholino oligonucleotide]",cell viability after 10 Gy,B16F10 melanoma cells,mild radioprotective effect
same,skin reaction / tissue damage of irradiated hindlimb,"C57BL/6 wild type mice; 48 hours before 25 Gy, 8 weeks","little to no alopecia, ulceration, or desquamation"
same,skin reaction / tissue damage of irradiated hindlimb,"C57BL/6 wild type mice; 48 hours before 25 Gy, 8 weeks, listed as CD47 targeting morpholino","minimal to no alopecia, ulceration, and desquamation"
same,H&E of treated hindlimb skeletal muscle,"C57BL/6 wild type mice; 25 Gy, results not shown",muscle cell survival and hypertrophy
same,hindlimb contracture due to fibrosis,"C57BL/6 wild type mice; 48 hours before 25 Gy, 8 weeks",minimal contracture due to fibrosis
same,tumor ablation / re-growth delay with irradiation,B16F10 melanoma tumors; morpholino 48 hours before 10 Gy,dramatically increased tumor ablation
same,tumor growth without irradiation,B16F10 melanoma tumors; morpholino alone,only slightly delayed tumor growth
same,normal tissue injury in tumor-bearing irradiated limbs,B16F10 melanoma tumors; morpholino then 10 Gy,minimal alopecia and no other morphologic or histologic evidence of tissue injury
